Data published in patent publication US20250304649A1, “SCN1B MIMETIC PEPTIDES AND USES THEREOF” (Virginia Tech Intellectual Properties, Inc., priority 2022, published 2025).
“Also recorded” adds a separate entry of the source. Positions of bridges follow the written chain, without caps; N, C: chain ends. No end group written: not given here.

What was measured:
[1] = tested on: regulated intramembrane proteolysis (RIP) of β1 in 1610β1 cells; test: Western blot of full-length β1 and C-terminal fragment (regulated intramembrane proteolysis) in 1610β1 cells; format: cell-based, Chinese hamster; settings: for CTF levels on immunoblots, peptide alone: without DAPT
Experimental: (FIG. 8A) Representative Western blot showing 0.1% DMSO, 50 μM βadp1, 1 μM DAPT, and 50 μM+1 μM DAPT treatments at 6 hours, 24 hours, and 48 hours of treatment. Cells were plated and treated simultaneously, and then lysate was collected at the indicated 6, 24, or 48 hours. Detection of the β1 subunit was done using a c-terminal antibody “Na Channel β1 Subunit (D4Z2N) Rabbit mAb #13950” (Cell Signaling Technologies). This allowed for labeling of both the full length β1 protein (37 kD) and the C-terminal fragment (CTF) (19 kD). […] (FIG. 8B) Quantification of the 37 kD full-length β1 protein at 6, 24, and 48 hours. All results are normalized to DMSO treatment at each timepoint and then shown as a ratio of DAPT+βadp1/DAPT to account for the DAPT treatment in each. […] (FIG. 8C) Quantification of the 19 kD CTF of β1. All results are normalized to DMSO treatment at each timepoint and then shown as a ratio of DAPT+βadp1/DAPT to account for the DAPT treatment in each.
β1 abundance was further examined using Western blotting (WB) at time points of 6, 24, and 48 hours after initial βadp1 treatment. Cells were plated in 35 mm cell culture dishes and treated with 50 μM βadp1 or βS2L solubilized in a final concentration of 0.1% DMSO at the time of plating. The control was DMSO vehicle. To determine whether βadp1 affects the RIP of β1, cells were also treated with 1 μM DAPT, an inhibitor of γ-secretase, to cause an accumulation of the intermediate substrate in the RIP of β1, the CTF. Whole cell lysate was collected and run on stain free gels and transferred to a Polyvinylidene difluoride (PVDF) membrane. Membranes were labeled with an antibody against the c-terminal domain of β1 (Cell Signaling Technologies).
β1 has been reported to undergo a process of […] intramembrane proteolysis (RIP) by BACE1 and γ-secretase, ultimately resulting in the production of a soluble intracellular domain (ICD) that is translocated to the nucleus, with correlated effects on gene transcription. Applicant sought to determine if the β1 targeting peptides affect the RIP process in 1610β1 cells and whether any effect relates to changes in the distribution and abundance of β1 immunolabeling we observed in this model. First, to confirm that β1 underwent RIP in 1610β1 cells, Applicant treated cells with the y-secretase inhibitor DAPT. In the presence of DAPT, it was noted that the 19 kD Carboxyl-Terminal Fragment (CTF) accumulated in Western blots from cells sampled at 6, 24 and 48 hours following initiation of treatment, similar to results published by others in CHL cells and MDA-MB-231 breast cancer cells (FIG. 12A). Without DAPT treatment the 19 kD CTF was virtually non-detectable at any of the time points sampled (FIG. 12A). Next, Applicant co-treated cells with DAPT in the presence of βadp1 or βS2L. […]

[2] = tested on: 1610β1 cells (β1/SCN1B-mediated cell adhesion); test: Electric cell-substrate impedance sensing (ECIS) of cell adhesion in 1610β1 monolayers; format: cell-based, Chinese hamster; settings: for resistance compared to vehicle over the entire time course / resistance compared to DMSO vehicle at 5 hours / resistance compared to DMSO vehicle at (up to) 20 hours / resistance compared to DMSO vehicle at 40 hours: 10 μM; for resistance compared to vehicle over the entire time course: 40 hour time course; for resistance compared to DMSO vehicle at 5 hours / resistance compared to DMSO vehicle at (up to) 20 hours / resistance compared to DMSO vehicle at 40 hours: single treatment at plating; for acute de-adhesion effects: dimerized peptides, ECIS time course
From the text: FIGS. 3A-3E show βadp1 binding and identification of βadp1 derived smaller peptide fragments with similar function. […] Positive and negatively charged moieties on the adhesion surface of the β1 Ig loop are shown in red and blue (as represented in greyscale), respectively. […] Peptides towards the carboxyl terminus of βadp1, especially those incorporating hydrophobic leucine residues, show the most adhesion reducing activity. Based on the ECIS time course data, and predictions from molecular modeling of likely binding in the hydrophobic pocket β1/SCN1B Ig domain binding surface, the sequence LQLEED (SEQ ID NO: 4) was selected as a short peptide candidate drug molecule.
In this Example to evaluate the long term effects (effects after more than 2 hours post treatment) of βadp1 and derivatives on β1 cell adhesion, electric cell-substrate impedance sensing (ECIS) was employed. ECIS measures the impedance of electric current. 4000 Hz is the recommended frequency for measuring changes in impedance between cells, assaying intercellular adhesion levels, as mediated by β1. […] To assist in focusing on the active sequence of βadp1 used to create the other peptides in this disclosure, ECIS experiments were completed using multiple small sequences as shown in FIGS. 3A-3E. From this, and in combination with the in silico experiments, it was determined that LQLEED (SEQ ID NO: 4) was the optimal sequence. […] For the other dimerized peptides, ERF residues were included on the c-terminal end of the LQLEED (SEQ ID NO: 4) peptide because residue R85 in SCN1B is associated with atrial fibrillation. Cells were plated in 8 well plates lined with 40 electrodes and treated with a 10 μM concentration of βadp1 in a final concentration of 0.1% DMSO at the time of plating or DMSO vehicle.
βadp1 is a peptide mimetic of a 20 amino acid (aa) sequence from the immunoglobulin (Ig) domain of the voltage gated sodium channel (VGSC) β1 subunit involved in adhesive interactions. […] Applicant synthesized a dimerized variant of the 20 aa βadp1 (FIG. 1) and tested it in monolayers of 1610 Chinese Hamster Lung cells stably expressing the β1 subunit (1610ß1) using electric cell substrate impedance sensing (ECIS) to determine whether it acted as an agonist that promoted β1-mediated adhesion.

[3] = tested on: β1 protein (SCN1B) in 1610β1 cells; test: Confocal immunofluorescence of β1 abundance and Biotin-βadp1 uptake in 1610β1 cells; format: cell-based, Chinese hamster; settings: for upregulation of β1 protein 48 hours after treatment: 50 μM; for upregulation of β1 protein 48 hours after treatment / β1 abundance (immunolabeling) at 48 hours compared to DMSO treated cells: FIG. 7; for β1 abundance (immunolabeling) at 48 hours compared to DMSO treated cells: 10 μM; for upregulation of β1 protein 48 hours after treatment / β1 abundance (immunolabeling) at 48 hours compared to DMSO treated cells / β1 abundance at cell-cell borders / in the membrane: 48 hours; for β1 abundance at cell-cell borders / in the membrane: FIG. 7D-7E
Experimental: Cells were then allowed to grow for 1-48 hours, after which they were fixed with 4% paraformaldehyde. […] White scale bar: 10 μm
FIGS. 7A-7D show 1610β1 cells treated for 48 hours with 10 μM concentrations of DMSO or βadp1 derived peptides (FIG. 7A) 0.1% DMSO, (FIG. 7B) βadp1, (FIG. 7C) LQLEED (SEQ ID NO: 4), (FIG. 7D) βS2L.
Next, the abundance of β1 protein was evaluated using confocal microscopy immunofluorescence (IF). 1610β1 cells were plated in 12 well plates on lysine coated coverslips and allowed to grow for 48 hours. Cells were then treated with a 50 μM concentration of βadp1, βS2L, βS2C, or LQLEED (SEQ ID NO: 4) or βadp1 conjugated with a Biotin molecule (B-βadp1) solubilized in a final concentration of 0.1% dimethyl sulfoxide (DMSO). Controls for the experiment were cells treated with only 0.1% DMSO vehicle. Cells were then fixed in 4% paraformaldehyde and stained with an antibody against the extracellular domain of β1 (Virginia Tech) and a streptavidin-Alexa647 (Invitrogen) conjugate to stain B-βadp1.
Applicant undertook immunolabeling studies to further probe the effect of the mimetic peptides on 1610β1 cells over time courses of up to 2 days. […] Prompted by this observation we examined what effects of 10 μM concentrations of LQLEED (SEQ ID NO: 4) and βS2L on β1 immunolabeling at or 48 hours over the same time course.

[4] = tested on: Isolated guinea pig hearts; settings: cited from earlier work
[5] = tested on: β1-mediated adhesion and gap junction-associated VGSC activity in cultured cells; settings: 1 to 2 hours; cited from earlier work
[6] = tested on: parental cell line of 1610 cells expressing negligible levels of β1; test: ECIS in parental 1610 cells; format: cell-based, Chinese hamster
[7] = tested on: 1610β1 cells (β1/SCN1B-mediated cell adhesion); test: Electric cell-substrate impedance sensing (ECIS) of cell adhesion in 1610β1 monolayers; format: cell-based, Chinese hamster
[8] = isolated guinea pig hearts treated acutely

Row | Compound | resistance compared to vehicle over the entire time course [2] | resistance compared to DMSO vehicle at 5 hours ([2]; 5 hours) | resistance compared to DMSO vehicle at (up to) 20 hours [2] | acute de-adhesion effects [2] | upregulation of β1 protein 48 hours after treatment [3] | resistance compared to DMSO vehicle at 40 hours [2] | β1 abundance (immunolabeling) at 48 hours compared to DMSO treated cells [3] | CTF levels on immunoblots, peptide alone [1] | β1 abundance at cell-cell borders / in the membrane [3] | other results
1 | C[C@H](NC(=O)Cc1cc(F)cc(F)c1)C(=O)N[C@H](C(=O)OC(C)(C)C)c1ccccc1 [DAPT, reference compound] |  |  |  |  |  |  |  |  |  | accumulation of the 19 kD C-terminal fragment (CTF) of β1 with DAPT ([1]; 1 μM DAPT, 6, 24 and 48 hours, versus no DAPT): accumulation of the 19KD CTF; also recorded: accumulated
2 | CLQLEEDERF-G-LQLEEDERFC (CLQLEEDERFGLQLEEDERFC; disulfide 1-21 (inferred)) [βS2C, dimeric peptide with NT and CT cysteines, cyclizable via disulfide bonding] | increased resistance throughout the time course | increase resistance; also recorded: significantly elevated over vehicle control | increased resistance | no acute de-adhesion effects detectable | upregulation of β1 protein |  |  |  |  | 
3 | FVKILRYENEVLQLEEDERF [βadp1] |  | decrease resistance | decrease resistance; also recorded: significantly decreased resistance; also recorded: significant decreases in resistance |  |  | no significant difference; also recorded: effects of βadp1 had reversed; also recorded: no longer significantly below those of controls | increase in β1 abundance | Neither βadp1 or βS2L alone appeared to have consistent effects |  | ECIS-assayed adhesion ([2]; 10 and 100 μM treatments): significant decreases in ECIS-assayed adhesion; normalized resistance of monolayers (marker of cell adhesion mediated by β1/SCN1B) relative to control ([2]; 1610 cells exogenously expressing β1/SCN1B, over 20 hours, FIG. 3D): significantly reduces normalized resistance; β1 levels at 48 hours ([3]; cells monitored up to 48 hours from the initial treatment): notably increased; regulated intramembrane proteolysis (RIP) of β1 ([1]; inferred from CTF accumulation with DAPT): increasing the amount of RIP that β1 undergoes; also recorded: increases the RIP of β1; perinexal adhesion at early time-points ([4]; <2 hours): perinexal de-adhesion; conduction velocity [4, 8]: decreased conduction velocity; perinexus width [4, 8]: widened perinexus; gap junction-associated VGSC activity [5]: inhibits; β1-mediated adhesion [5]: inhibits β1-mediated adhesion
4 | FVKILRYENEVLQLEEDERGFVKILRYENEVLQLEEDER [Db1-βadp1, dimerized version of βadp1 with a glycine linker] |  |  |  |  |  |  |  |  |  | intercellular resistance in parental 1610 cells [6]: did not result in increased intercellular resistance; concentration dependence of the increase in resistance ([7]; 100 μM versus 50 μM, 24 hours): concentration dependent effect; also recorded: higher for 100 μM Db1-βadp1 versus the 50 μM treatment; resistance compared to DMSO/vehicle control ([7]; Db1-βadp1 100 μM and 50 μM, over 24 hours of treatment, n=2, FIG. 4): increased resistance
5 | LQLEED [short monomeric peptide towards the carboxyl terminus of βadp1] |  | decrease resistance; also recorded: decreased levels of intercellular resistance | decreased resistance; also recorded: significant decreases in resistance |  |  |  | increase in β1 abundance; also recorded: appeared to increase |  | occasional evidence of increased intensity of immunolabeling signal at cell borders | 
6 | LQLEEDERF-G-LQLEEDERF (LQLEEDERFGLQLEEDERF) [βS2L] | increased resistance throughout the time course; also recorded: significantly increasing resistance | increase resistance; also recorded: significantly elevated over vehicle control | increase resistance | no acute de-adhesion effects detectable | upregulation of β1 protein | continues to increase resistance | increase in β1 abundance; also recorded: cell-wide increases in β1 immunolabeling | Neither βadp1 or βS2L alone appeared to have consistent effects | increase the 1 abundance at cell-cell borders; also recorded: increase the β1 present in the membrane; also recorded: distinctive increase in signal at cell borders | resistance relative to that after the LQLEED inhibitory monomer ([2]; 5 hours): 5-6 fold
